Laboratory results reported in patent publication US20250352520A1, “USE OF DEXPRAMIPEXOLE FOR THE TREATMENT OF EOSINOPHILIC COPD” (Areteia Therapeutics, Inc., priority 2024, published 2025).

Conditions: Week 8; <50% AEC reduction at Week 16

SMILES: CCCN[C@@H]1CCc2nc(N)sc2C1 [Dexpramipexole, (6R)-2-amino-4,5,6,7-tetrahydro-6-(propylamino)benzothiazole]
- Pre-BD FEF25-75 % change from baseline, Max: 58%
- Pre-BD FEF25-75 % change from baseline, Mean ± SD: 30.4 ± 31.72%
- Pre-BD FEF25-75 % change from baseline, Median: 38.4%
- Pre-BD FEF25-75 % change from baseline, Min: −14%
- Pre-BD FEF25-75 % change from baseline, Q1: 8%
- Pre-BD FEF25-75 % change from baseline, Q3: 53%
- Pre-BD FEF25-75 Observed, Max: 2050 mL/s
- Pre-BD FEF25-75 Observed, Mean ± SD: 875.0 ± 790.55 mL/s
- Pre-BD FEF25-75 Observed, Median: 535.0 mL/s
- Pre-BD FEF25-75 Observed, Min: 380 mL/s
- Pre-BD FEF25-75 Observed, Q1: 410 mL/s
- Pre-BD FEF25-75 Observed, Q3: 1340 mL/s
- Pre-BD FEF25-75 change from baseline, Max: 660 mL/s
- Pre-BD FEF25-75 change from baseline, Mean ± SD: 200.0 ± 324.14 mL/s
- Pre-BD FEF25-75 change from baseline, Median: 120.0 mL/s
- Pre-BD FEF25-75 change from baseline, Min: -100 mL/s
- Pre-BD FEF25-75 change from baseline, Q1: 0 mL/s
- Pre-BD FEF25-75 change from baseline, Q3: 400 mL/s
- Pre-BD FEV1 % change from baseline, Max: 41%
- Pre-BD FEV1 % change from baseline, Mean ± SD: 16.0 ± 19.59%
- Pre-BD FEV1 % change from baseline, Median: 13.2%
- Pre-BD FEV1 % change from baseline, Min: −4%
- Pre-BD FEV1 % change from baseline, Q1: 1%
- Pre-BD FEV1 % change from baseline, Q3: 31%
- Pre-BD FEV1 Observed, Max: 2940 mL
- Pre-BD FEV1 Observed, Mean ± SD: 1755.0 ± 860.79 mL
- Pre-BD FEV1 Observed, Median: 1600.0 mL
- Pre-BD FEV1 Observed, Min: 880 mL
- Pre-BD FEV1 Observed, Q1: 1215 mL
- Pre-BD FEV1 Observed, Q3: 2295 mL
- Pre-BD FEV1 change from baseline, Max: 860 mL
- Pre-BD FEV1 change from baseline, Mean ± SD: 282.5 ± 410.23 mL
- Pre-BD FEV1 change from baseline, Median: 165.0 mL
- Pre-BD FEV1 change from baseline, Min: -60 mL
- Pre-BD FEV1 change from baseline, Q1: -5 mL
- Pre-BD FEV1 change from baseline, Q3: 570 mL
- Pre-BD FVC % change from baseline, Max: 17%
- Pre-BD FVC % change from baseline, Mean ± SD: 4.5 ± 11.70%
- Pre-BD FVC % change from baseline, Median: 5.1%
- Pre-BD FVC % change from baseline, Min: −9%
- Pre-BD FVC % change from baseline, Q1: −5%
- Pre-BD FVC % change from baseline, Q3: 14%
- Pre-BD FVC Observed, Max: 3990 mL
- Pre-BD FVC Observed, Mean ± SD: 3162.5 ± 792.10 mL
- Pre-BD FVC Observed, Median: 3175.0 mL
- Pre-BD FVC Observed, Min: 2310 mL
- Pre-BD FVC Observed, Q1: 2500 mL
- Pre-BD FVC Observed, Q3: 3825 mL
- Pre-BD FVC change from baseline, Max: 540 mL
- Pre-BD FVC change from baseline, Mean ± SD: 167.5 ± 353.02 mL
- Pre-BD FVC change from baseline, Median: 185.0 mL
- Pre-BD FVC change from baseline, Min: -240 mL
- Pre-BD FVC change from baseline, Q1: -120 mL
- Pre-BD FVC change from baseline, Q3: 455 mL
- Pre-BD Peak Flow % change from baseline, Max: 500%
- Pre-BD Peak Flow % change from baseline, Mean ± SD: 136.0 ± 243.51%
- Pre-BD Peak Flow % change from baseline, Median: 28.5%
- Pre-BD Peak Flow % change from baseline, Min: −13%
- Pre-BD Peak Flow % change from baseline, Q1: 4%
- Pre-BD Peak Flow % change from baseline, Q3: 268%
- Pre-BD Peak Flow Observed, Max: 319 L/min
- Pre-BD Peak Flow Observed, Mean ± SD: 227.0 ± 70.68 L/min
- Pre-BD Peak Flow Observed, Median: 217.5 L/min
- Pre-BD Peak Flow Observed, Min: 154 L/min
- Pre-BD Peak Flow Observed, Q1: 175 L/min
- Pre-BD Peak Flow Observed, Q3: 280 L/min
- Pre-BD Peak Flow change from baseline, Max: 200 L/min
- Pre-BD Peak Flow change from baseline, Mean ± SD: 70.5 ± 97.89 L/min
- Pre-BD Peak Flow change from baseline, Median: 55.5 L/min
- Pre-BD Peak Flow change from baseline, Min: -29 L/min
- Pre-BD Peak Flow change from baseline, Q1: -1 L/min
- Pre-BD Peak Flow change from baseline, Q3: 142 L/min
